Columns and labels:
Estrogen receptor = molecular target: T1, Estrogen receptor (Homo sapiens, UniProt P03372)
T1 sequence (P03372 whole entry): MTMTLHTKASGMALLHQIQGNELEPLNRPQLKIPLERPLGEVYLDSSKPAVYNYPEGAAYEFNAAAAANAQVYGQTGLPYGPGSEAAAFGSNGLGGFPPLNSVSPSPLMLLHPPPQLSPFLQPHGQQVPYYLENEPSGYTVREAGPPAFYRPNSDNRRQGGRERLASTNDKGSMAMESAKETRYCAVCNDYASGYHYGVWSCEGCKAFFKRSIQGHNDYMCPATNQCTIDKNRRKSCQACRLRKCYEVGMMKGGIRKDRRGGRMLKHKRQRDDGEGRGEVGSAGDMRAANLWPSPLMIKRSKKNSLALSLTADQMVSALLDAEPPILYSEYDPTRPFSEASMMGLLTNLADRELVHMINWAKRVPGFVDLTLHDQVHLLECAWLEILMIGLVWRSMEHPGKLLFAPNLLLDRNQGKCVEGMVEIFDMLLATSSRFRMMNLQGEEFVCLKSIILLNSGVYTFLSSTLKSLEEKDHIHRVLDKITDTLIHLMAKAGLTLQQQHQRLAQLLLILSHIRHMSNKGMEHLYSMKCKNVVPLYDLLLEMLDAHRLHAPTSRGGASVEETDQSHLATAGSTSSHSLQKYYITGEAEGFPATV

[1] = molecular target: T2, Estrogen receptor (Homo sapiens) (UniProt P03372); assay: Agonist activity at human full-length ERalpha receptor expressed in human HEC1 cells co-expressing (ERE)2-pS2-luc gene assessed as transcriptional activation after 24 hrs by luciferase reporter gene assay relative to estradiol; assay type: functional, cell-based; settings: HEC-1
T2 sequence (whole entry): T1 sequence (P03372 whole entry)

Estrogen receptor beta [2] = molecular target: T3, Estrogen receptor beta (Homo sapiens, UniProt Q92731); assay: Displacement of [3H]-estradiol from human full-length ERbeta receptor by competitive radiometric binding assay relative to estradiol
[3] = molecular target: T2, Estrogen receptor (Homo sapiens); assay: Displacement of [3H]-estradiol from human full-length ERalpha receptor by competitive radiometric binding assay relative to estradiol
Estrogen receptor beta [4] = molecular target: T3, Estrogen receptor beta
Estrogen receptor beta [5] = molecular target: T3, Estrogen receptor beta; assay: Agonist activity at human full-length ERbeta receptor expressed in human HEC1 cells co-expressing (ERE)2-pS2-luc gene assessed as transcriptional activation after 24 hrs by luciferase reporter gene assay relative to estradiol; assay type: functional, cell-based; settings: HEC-1
Estrogen receptor beta [6] = molecular target: T3, Estrogen receptor beta; remark: listed apart in the source

T3 sequence (Q92731 whole entry): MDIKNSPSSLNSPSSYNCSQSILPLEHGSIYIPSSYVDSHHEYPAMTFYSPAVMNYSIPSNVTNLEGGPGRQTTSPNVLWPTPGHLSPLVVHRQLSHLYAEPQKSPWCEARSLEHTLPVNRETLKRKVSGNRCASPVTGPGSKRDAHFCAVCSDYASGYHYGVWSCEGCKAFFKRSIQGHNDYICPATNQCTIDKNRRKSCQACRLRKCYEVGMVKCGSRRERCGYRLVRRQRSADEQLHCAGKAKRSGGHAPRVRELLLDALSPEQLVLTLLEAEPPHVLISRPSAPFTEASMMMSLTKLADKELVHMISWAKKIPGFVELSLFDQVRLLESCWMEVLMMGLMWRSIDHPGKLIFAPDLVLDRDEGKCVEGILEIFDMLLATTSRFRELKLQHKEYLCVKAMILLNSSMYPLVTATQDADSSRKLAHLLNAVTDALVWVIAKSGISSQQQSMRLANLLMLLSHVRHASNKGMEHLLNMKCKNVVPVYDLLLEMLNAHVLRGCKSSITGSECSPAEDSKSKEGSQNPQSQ

| SMILES | EC50 (Estrogen receptor) [nM] | Emax [1] [%] | RBA (Estrogen receptor beta [2]) [%] | RBA [3] [%] | EC50 (Estrogen receptor beta [4]) [nM] | Emax (Estrogen receptor beta [5]) [%] | Ki (Estrogen receptor beta [6]) [nM] |
| --- | --- | --- | --- | --- | --- | --- | --- |
| O/N=C/c1c(O)ccc(-c2ccc(O)cc2)c1-c1ccc(O)cc1 | 0.3 | 90 | 101 | 88.4 | 0.5 | 80 | – |
| Cc1cc(-c2ccc(O)cc2)c(Cl)c(/C=N/O)c1O | – | – | 0.64 | 0.074 | – | – | – |
| O/N=C/c1ccc(-c2ccc(O)cc2)c(-c2ccc(O)cc2)c1O | – | – | 0.35 | 0.92 | – | – | – |
| Cc1c(-c2ccc(O)cc2)cc(Cl)c(O)c1/C=N/O | – | – | 15.8 | 1.47 | – | – | – |

Next, values leading:

| EC50 (Estrogen receptor) [nM] | Emax [1] [%] | RBA (Estrogen receptor beta [2]) [%] | RBA [3] [%] | EC50 (Estrogen receptor beta [4]) [nM] | Emax (Estrogen receptor beta [5]) [%] | Ki (Estrogen receptor beta [6]) [nM] | SMILES |
| --- | --- | --- | --- | --- | --- | --- | --- |
| 8.4 | 100 | 87.1 | 1.88 | 1.3 | 100 | 0.57 | O/N=C/c1c(O)ccc(-c2ccc(O)c(F)c2)c1Cl |
| – | – | 7.9 | 0.39 | – | – | – | Cc1c(-c2ccc(O)c(F)c2)cc(Cl)c(O)c1/C=N/O |
| 0.58 | 100 | 130 | 4.46 | 0.23 | 100 | 0.38 | O/N=C/c1c(O)ccc(-c2ccc(O)cc2)c1Cl |
